Measurements reported in publication PMC12171880, “Selectivity and Safety Characterization of a Xanthine–Imidazothiazole Lead Structure: a Novel Tryptophan Hydroxylase Inhibitor of Peripheral Serotonin Synthesis” (ACS Pharmacology & Translational Science, 2025).
“And” between values parts separate entries of the source, which are not always exact repeats. Equal entries are not always repeated.

Columns and labels:
human recombinant TPH1 = biological target: T1, human recombinant TPH1 (Homo sapiens, UniProt P17752); assay: TPH1 enzymatic activity assay (fluorescence, 96-well); assay type: biochemical
T1 construct: Full-length human TPH1 and TPH2 (UniProt entries P17752 and Q8IWU9); MBP (N); made in house
T1 sequence (P17752 1-444): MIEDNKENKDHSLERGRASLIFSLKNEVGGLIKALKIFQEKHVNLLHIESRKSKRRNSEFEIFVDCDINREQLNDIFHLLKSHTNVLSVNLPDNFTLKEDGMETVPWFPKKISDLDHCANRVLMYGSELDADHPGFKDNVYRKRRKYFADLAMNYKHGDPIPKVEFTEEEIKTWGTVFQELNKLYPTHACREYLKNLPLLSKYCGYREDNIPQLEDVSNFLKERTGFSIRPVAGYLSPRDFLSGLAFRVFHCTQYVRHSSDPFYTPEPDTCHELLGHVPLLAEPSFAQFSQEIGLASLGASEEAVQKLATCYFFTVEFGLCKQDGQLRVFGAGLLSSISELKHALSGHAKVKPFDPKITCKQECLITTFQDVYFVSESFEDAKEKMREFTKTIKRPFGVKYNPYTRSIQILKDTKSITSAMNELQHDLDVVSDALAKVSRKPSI

[1] = test system: 97 targets (receptors, enzymes, and ion channels); assay: Eurofins Diversity Panel, 97 binding, enzyme and uptake assays; conditions: 10 μM
Procedure: TPT-004 was evaluated at a concentration of 10 μM in a total of 97 binding, enzyme, and uptake assays (Diversity Panel) by Eurofins Cerep (Celle l’Evescault, France). Compound binding was calculated as % inhibition of the binding of a ligand specific to each target. The compound enzyme inhibition effect was calculated as percentage inhibition of the control enzyme activity. Results showing an inhibition (or stimulation for assays run under basal conditions) of >50% are considered to represent significant effects of the test compounds. Results showing an inhibition (or stimulation) between 25% and 50% are indicative of weak to moderate effects. Results showing an inhibition (or stimulation) lower than 25% are not considered significant and are mostly attributable to variability in the signal around the control level. […] In each experiment, and if applicable, the respective reference compound was tested concurrently with TPT-004, and the data were compared with historical values determined at Eurofins. […]
The results are expressed as a percent of control-specific binding: measured specific binding/control specific binding×100 and as a percent inhibition of control-specific binding: 100−(measured specific binding/control specific binding×100) obtained in the presence of TPT-004. […]

Sprague–Dawley rats = assay: Dose-range finding study in rats, necropsy and organ weight; assay type: in vivo, rat; conditions: for Organ weight, Brain / Organ weight, Heart / Organ weight, Kidney / Organ weight, Liver / Organ weight, Lung / Organ weight, Ovary (n=3 per group) / Organ weight, Spleen / Organ weight, Testis (n=3 per group): day 8
Procedure: TPT-004 was formulated in 0.5% (w/v) CMC-Na in water and administered by oral gavage (PO) twice daily (b.i.d.) with a 12 h interval to the treatment groups (3 male and 3 female Sprague–Dawley rats each) for 8 days (15 successive applications). Rats were dosed with 10, 45, and 200 mg/kg, i.e., daily doses of 20, 90, and 400 mg/kg. In addition, a control group was dosed at the same frequency as the vehicle (0.5% CMC-Na).
Blood samples were collected as described below. The animal sacrifice (exsanguination) was performed on day 8. During the necropsy, the selected organs were collected, weighed, and shipped to a third-party laboratory for histopathological examination (as described below).

[2] = two rodent species; previously published pharmacokinetic data; cited from earlier work

CCn1c(=O)[nH]c(=O)c2c1nc(Cc1cn3cc(C)sc3n1)n2CC1COC1 [TPT-004]
Mean TPH1 activity [%] (human recombinant TPH1; 3 nM): 99.51% | IC50 (human recombinant TPH1; 3 nM to 10 μM, 15 μM L-Trp, 20 μM BH4): 33.4 nM | Mean TPH1 activity [%] (human recombinant TPH1; 10 nM): 77.11% | Mean TPH1 activity [%] (human recombinant TPH1; 30 nM): 52.25% | Mean TPH1 activity [%] (human recombinant TPH1; 100 nM): 21.29% | Mean TPH1 activity [%] (human recombinant TPH1; 300 nM): 7.59% | Mean TPH1 activity [%] (human recombinant TPH1; 1 μM): 3.62% | Mean TPH1 activity [%] (human recombinant TPH1; 3 μM): 3.64% | Mean TPH1 activity [%] (human recombinant TPH1; 10 μM): 3.21% | fold higher TPH1 inhibitory potency (lower IC50) compared to LP778902 (human recombinant TPH1; 33.38 vs […]): ~18 | IC50 (human recombinant TPH1; supplementary CSV): 33 nM | significant effects (more than 50% inhibition or stimulation) among 97 targets [1]: a significant effect was observed only for the rat homolog of TH | Organ weight, Brain (Sprague–Dawley rats; 10 mg/kg PO BID): 6.8 g/kg body weight | Organ weight, Heart (Sprague–Dawley rats; 10 mg/kg PO BID): 3.5 g/kg body weight | Organ weight, Kidney (Sprague–Dawley rats; 10 mg/kg PO BID): 3.8 g/kg body weight | Organ weight, Liver (Sprague–Dawley rats; 10 mg/kg PO BID): 39.4 g/kg body weight | Organ weight, Lung (Sprague–Dawley rats; 10 mg/kg PO BID): 5.3 g/kg body weight | Organ weight, Ovary (n=3 per group) (Sprague–Dawley rats; 10 mg/kg PO BID): 0.72 g/kg body weight | Organ weight, Spleen (Sprague–Dawley rats; 10 mg/kg PO BID): 2.9 g/kg body weight | Organ weight, Testis (n=3 per group) (Sprague–Dawley rats; 10 mg/kg PO BID): 8.7 g/kg body weight | Organ weight, Brain (Sprague–Dawley rats; 45 mg/kg PO BID): 6.5 g/kg body weight | Organ weight, Heart (Sprague–Dawley rats; 45 mg/kg PO BID): 3.6 g/kg body weight | Organ weight, Kidney (Sprague–Dawley rats; 45 mg/kg PO BID): 3.6 g/kg body weight | Organ weight, Liver (Sprague–Dawley rats; 45 mg/kg PO BID): 42.1 g/kg body weight | Organ weight, Lung (Sprague–Dawley rats; 45 mg/kg PO BID): 5.2 g/kg body weight | Organ weight, Ovary (n=3 per group) (Sprague–Dawley rats; 45 mg/kg PO BID): 0.55 g/kg body weight | Organ weight, Spleen (Sprague–Dawley rats; 45 mg/kg PO BID): 2.8 g/kg body weight | Organ weight, Testis (n=3 per group) (Sprague–Dawley rats; 45 mg/kg PO BID): 8.1 g/kg body weight | Organ weight, Brain (Sprague–Dawley rats; 200 mg/kg PO BID): 6.7 g/kg body weight | Organ weight, Heart (Sprague–Dawley rats; 200 mg/kg PO BID): 3.6 g/kg body weight | Organ weight, Kidney (Sprague–Dawley rats; 200 mg/kg PO BID): 4.0 g/kg body weight | Organ weight, Lung (Sprague–Dawley rats; 200 mg/kg PO BID): 5.2 g/kg body weight | Organ weight, Ovary (n=3 per group) (Sprague–Dawley rats; 200 mg/kg PO BID): 0.65 g/kg body weight | Organ weight, Spleen (Sprague–Dawley rats; 200 mg/kg PO BID): 2.8 g/kg body weight | Organ weight, Testis (n=3 per group) (Sprague–Dawley rats; 200 mg/kg PO BID): 8.4 g/kg body weight | Organ weight, Liver (Sprague–Dawley rats; 200 mg/kg PO BID, vehicle 41.2 ± 2.2, p = 0.0128): 45.2 g/kg body weight and 45.2 ± 1.2 g/kg body weight | gross lesions at necropsy (Sprague–Dawley rats; 10, 45, or 200 mg/kg BID PO, 8 days): No test-item-related gross lesions | weight of the organs, vehicle vs treatment groups, overall (Sprague–Dawley rats; 10, 45 or 200 mg/kg BID PO, 8 days, except liver at 200 mg/kg BID): No significant difference | blood-brain barrier penetration [2]: exceptionally low blood-brain barrier penetration
